Laboratory results as given in PubChem BioAssay (NCI).
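How tested: cells in 96-well plates exposed to compound for 48 hours at five concentrations. TGI marks complete inhibition of growth.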

System: SN12K1 renal
Test: inhibition of tumour cell growth, NCI panel, 48 h

CN(C)CC1CCCC(CN(C)C)C1=O (stereo unspecified)
TGI: 30.4 µM
